The subject of assay [1] is human ES cell-derived engineered neural tissues (ENTs). The assay is described as follows: Three-dimensional neuronal differentiation / engineered neural tissues (ENTs) from human ES cells. The class given is cell-based. The following applies: for number / density of rosettes in ENT: first steps of ENT formation, 1 month old ENTs; for non-neural cells / tissue within ENT (mesenchyma, dark pigmented zones), homogeneity: macroscopic view. From the text: ENTs are 3-dimensional pieces of tissues derived from embryonic stem cells (ES) which resemble certain layers of human fetal brain.
For three-dimensional neuronal differentiation, 5-10 spheres were generated as described in differentiation protocol 2 and plated on a pre-cut patch of hydrophilic polytetrafluoroethylene (PTFE) membrane (confetti, 6 mm diameter, 0.4 μm, BioCell-Interface, La Chaux-de-Fonds, Switzerland). Next, the membrane was placed in a Millicell®-CM (0.4 μm) Culture Plate Insert (Millipore) on one ml of N2 medium. The medium was changed every 2-3 days. This method has been described for tissue slices previously (Stoppini et al., 1991) and has been recently adapted to ES cell-derived neural tissue by Preynat-Seauve et al. (attached manuscript).
Next, the activity of phenazopyridine was tested on neuronal differentiation in a three-dimensional culture system.

In assay [2] the test system is human ES cell-derived neural precursors. The assay is described as follows: Two step differentiation: precursors replated without compound in neuronal differentiation medium. The class given is cell-based. From the text: To investigate the potential of neural precursors generated through phenazopyridine treatment, cells exposed to DMSO or phenazopyridine for four weeks as in Example 2 were replated at low density (5×10^3 cells/cm^2) on polyornithine/laminin coated support in neuronal differentiation medium, and investigated for their phenotype at different time points. Cells were then immunostained for neuronal markers and alkaline phosphatase (marking undifferentiated ES cells) after one week and four weeks of differentiation. Immunostaining was performed for nestin, β3-tubulin, Sox1, Pax6, vimentin, GFAP, CNPase, v-Glut1, GAD67, tyrosine hydroxylase and alkaline phosphatase. […] Two different protocols were used to induce neuronal differentiation of human ES cells. In the first protocol, human ES cells were mechanically dissociated into small aggregates and plated on laminin/polyornithine coated six-well plates. Cells were cultured 2 weeks in human SR medium (DMEM F-12 supplemented with 15% knockout serum (Gibco), non-essential amino acids, penicillin and streptomycin), followed by 4 weeks in N2 medium. Compounds were added throughout these first 6 weeks. Subsequently, cells were mechanically dissociated and replated on polyornithine/laminin-coated 6 well plates. Throughout the text, this first differentiation protocol will be referred to as “differentiation protocol 1”. The second differentiation protocol was derived from previously described differentiation conditions (Nat et al., 2007). In the second differentiation protocol, undifferentiated human ES cells were mechanically dissociated into small aggregates and cultured in suspension on low-attachment six-well plates. For the first 4 days, they were cultured in neuronal induction medium (DMEM F-12, N2 supplement, penicillin and streptomycin), which was changed to simple neuronal proliferation medium (DMEM F-12, N2 supplement, 20 ng/ml bFGF, penicillin and streptomycin) for 2 additional days. Subsequently, aggregates were plated on polyornithine/laminin-coated six-well plates and maintained in simple neuronal proliferation medium for 7 days. Cells were then mechanically dissociated and replated in N2 medium at a density of 2×10^4 cells per cm^2 for two additional weeks. Compounds were added throughout these first 4 weeks. Cells were then replated at a density of 5′000 cells per cm^2 in neuronal differentiation medium (Neurobasal medium, B-27 supplement, BDNF (10 ng/ml), penicillin and streptomycin). Throughout the text, this second differentiation protocol will be referred as to “differentiation protocol 2”. […] To investigate the potential of neuronal precursors generated through phenazopyridine treatment, the inventors devised a two step differentiation protocol. Cells were first treated with 3 μM phenazopyridine for 4 weeks and subsequently replated in the absence of phenazopyridine. For the second step, the inventors cultured cells at low density (5×10^3 cells/cm^2) on polyornithine/laminin-coated support in neuronal differentiation medium and investigated their phenotype at different time points in three independent experiments.

Entries after “also recorded” stand apart in the source; their conditions may differ.

Regarding `Nc1ccc(/N=N/c2ccccc2)c(N)n1` [phenazopyridine], the “quality of engineered neural tissues (ENTs)” value in assay [1] (3 μM) was “substantially increased the quality”. Further, in assay [1] (2 weeks and 4 weeks of differentiation, vs control), the “total number of neural tubes per three-dimensional culture” value is “significant increase”. Further, the “number / density of rosettes in ENT” value in assay [1] is on record as “improved densities of rosettes”; in assay [1] (listed as Phenazopyridine), “increased the number of rosettes”. The “non-neural cells / tissue within ENT (mesenchyma, dark pigmented zones), homogeneity” value in assay [1] (with vs without compound) was “decreased the incidence of cells differentiating into non-neuronal cells within ENT”; in assay [1] (with vs without compound, listed as phenazopridine), “displayed less mesenchyma (FIG. 3) and fewer dark pigmented zones; also recorded: more homogenous and appeared to contain a reduced amount of non-neural cells”. Also, in assay [1] (with vs without compound), the “cartilage by immunofluorescent staining of tenascin C in ENTs” value is on record as “cartilage was not observed”. Moreover, the “phenotype 4 weeks after replating” value in assay [2] (3 μM for 4 weeks, then 4 weeks without compound) was “formed networks of neurons, astrocytes and oligodendrocytes; also recorded: slow-growing cell clusters homogeneously positive for nestin, β3-tubulin, Sox1 and vimentin, together with more mature neurons, astrocytes and oligodendrocyte progenitors”. Further, the subtypes of neurons result in assay [2] (3 μM for 4 weeks, then one week without compound) is “mainly glutamatergic, GABAergic and rarely dopaminergic neurons; also recorded: glutamatergic, GABAergic and—more rarely—TH-positive neurons”. Moreover, the “phenotype one week after replating” value in assay [2] (3 μM for 4 weeks, then replated without compound) is “started to differentiate into neurons; also recorded: relatively homogenous monolayer of neural precursors and early neurons with short neurites”. In addition, the “alkaline phosphatase-positive (undifferentiated ES) cells” value in assay [2] (after replating, vs control) is reported as “never detected alkaline phosphatase-positive cells”. Besides, in assay [2] (one week after replating), the “astrocytes or oligodendrocyte precursors (GFAP, CNPase immunostaining)” value is “did not observe the presence of astrocytes or oligodendrocytes precursors”.

The values above are taken from patent US8609413B2, “Neurons, astrocytes and oligodendrocytes differentiated from a mammalian pluripotent or neural stem cells exposed to a pyridine deriviative” (Research Development Foundation, priority 2007, dated 2013).
